Experimental data taken from PubChem BioAssay (NCI).
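Grown in 96-well plates, cells were treated for 48 hours with each compound at five concentrations. Insufficient inhibition: endpoint recorded as highest concentration tested. Here, GI50 denotes the concentration required for 50% inhibition of growth. TGI marks complete inhibition of growth.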

How the values were obtained:
Test in all cases: NCI tumour cell line growth inhibition, 48 h
UO-31 renal = tested on: UO-31 renal
SF-539 CNS = tested on: SF-539 CNS
OVCAR-3 ovarian = tested on: OVCAR-3 ovarian
MCF7 breast = tested on: MCF7 breast
OVCAR-8 ovarian = tested on: OVCAR-8 ovarian
NCI-H23 lung = tested on: NCI-H23 lung
NCI-H460 lung = tested on: NCI-H460 lung
MALME-3M melanoma = tested on: MALME-3M melanoma
HOP-92 NSCLC = tested on: HOP-92 NSCLC
HS 578T breast = tested on: HS 578T breast
SF-295 CNS = tested on: SF-295 CNS
COLO 205 colon = tested on: COLO 205 colon
HOP-62 NSCLC = tested on: HOP-62 NSCLC
K-562 leukemia = tested on: K-562 leukemia
MDA-MB-231 breast = tested on: MDA-MB-231 breast
HCC-2998 colon = tested on: HCC-2998 colon
NCI-H522 lung = tested on: NCI-H522 lung
SN12C renal = tested on: SN12C renal
U251 CNS = tested on: U251 CNS
HT29 colon = tested on: HT29 colon
ACHN renal = tested on: ACHN renal
SF-268 CNS = tested on: SF-268 CNS
SNB-19 CNS = tested on: SNB-19 CNS
A549 NSCLC = tested on: A549 NSCLC
NCI-H226 lung = tested on: NCI-H226 lung
HCT-15 colon = tested on: HCT-15 colon
NCI/ADR-RES ovarian = tested on: NCI/ADR-RES ovarian
OVCAR-4 ovarian = tested on: OVCAR-4 ovarian
EKVX NSCLC = tested on: EKVX NSCLC
UACC-257 melanoma = tested on: UACC-257 melanoma
SW-620 colon = tested on: SW-620 colon
MDA-MB-435 = tested on: MDA-MB-435
SK-MEL-2 melanoma = tested on: SK-MEL-2 melanoma
KM12 colon = tested on: KM12 colon
HL-60(TB) leukemia = tested on: HL-60(TB) leukemia
TK-10 renal = tested on: TK-10 renal
HCT-116 colon = tested on: HCT-116 colon
CAKI-1 renal = tested on: CAKI-1 renal
OVCAR-5 ovarian = tested on: OVCAR-5 ovarian
A498 renal = tested on: A498 renal
UACC-62 melanoma = tested on: UACC-62 melanoma
SK-OV-3 ovarian = tested on: SK-OV-3 ovarian
PC-3 prostate = tested on: PC-3 prostate
RPMI-8226 leukemia = tested on: RPMI-8226 leukemia
M14 melanoma = tested on: M14 melanoma
T-47D breast = tested on: T-47D breast
786-0 renal = tested on: 786-0 renal
MOLT-4 leukemia = tested on: MOLT-4 leukemia
IGROV1 ovarian = tested on: IGROV1 ovarian
CCRF-CEM leukemia = tested on: CCRF-CEM leukemia
BT-549 breast = tested on: BT-549 breast
RXF 393 renal = tested on: RXF 393 renal
LOX IMVI melanoma = tested on: LOX IMVI melanoma
DU-145 prostate = tested on: DU-145 prostate
SNB-75 CNS = tested on: SNB-75 CNS
SK-MEL-5 melanoma = tested on: SK-MEL-5 melanoma
SR leukemia = tested on: SR leukemia

O=C(c1ccccc1)c1ccc(N2C(=O)C3C4c5ccccc5C(/C=C/C(=O)c5ccccn5)(c5ccccc54)C3C2=O)cc1 (centres undefined)
GI50 (UO-31 renal): 1450 nM | TGI (UO-31 renal): 2920 nM | GI50 (SF-539 CNS): 2070 nM | TGI (SF-539 CNS): 4.91 µM | GI50 (OVCAR-3 ovarian): 1830 nM | TGI (OVCAR-3 ovarian): 3.85 µM | GI50 (MCF7 breast): 1770 nM | TGI (MCF7 breast): > 100 µM | GI50 (OVCAR-8 ovarian): 2560 nM | TGI (OVCAR-8 ovarian): > 100 µM | GI50 (NCI-H23 lung): 2050 nM | TGI (NCI-H23 lung): 5.09 µM | GI50 (NCI-H460 lung): 2670 nM | TGI (NCI-H460 lung): 9.23 µM | GI50 (MALME-3M melanoma): 2330 nM | TGI (MALME-3M melanoma): 6.48 µM | GI50 (HOP-92 NSCLC): 1800 nM | TGI (HOP-92 NSCLC): 7.13 µM | GI50 (HS 578T breast): 2980 nM | TGI (HS 578T breast): > 100 µM | GI50 (SF-295 CNS): 2030 nM | TGI (SF-295 CNS): 5.07 µM | GI50 (COLO 205 colon): 3.72 µM | TGI (COLO 205 colon): 20.8 µM | GI50 (HOP-62 NSCLC): 3.43 µM | TGI (HOP-62 NSCLC): > 100 µM | GI50 (K-562 leukemia): 1770 nM | TGI (K-562 leukemia): > 100 µM | GI50 (MDA-MB-231 breast): 2340 nM | TGI (MDA-MB-231 breast): 6.4 µM | GI50 (HCC-2998 colon): 1720 nM | TGI (HCC-2998 colon): 3.34 µM | GI50 (NCI-H522 lung): 2280 nM | TGI (NCI-H522 lung): 6.82 µM | GI50 (SN12C renal): 2730 nM | TGI (SN12C renal): > 100 µM | GI50 (U251 CNS): 2080 nM | TGI (U251 CNS): 4.62 µM | GI50 (HT29 colon): 2920 nM | TGI (HT29 colon): > 100 µM | GI50 (ACHN renal): 2070 nM | TGI (ACHN renal): 4.64 µM | GI50 (SF-268 CNS): > 23.1 µM | TGI (SF-268 CNS): > 100 µM | GI50 (SNB-19 CNS): 3.72 µM | TGI (SNB-19 CNS): > 100 µM | GI50 (A549 NSCLC): 2870 nM | TGI (A549 NSCLC): > 100 µM | GI50 (NCI-H226 lung): 2060 nM | TGI (NCI-H226 lung): 4.48 µM | GI50 (HCT-15 colon): 1690 nM | TGI (HCT-15 colon): 4.4 µM | GI50 (NCI/ADR-RES ovarian): 2680 nM | TGI (NCI/ADR-RES ovarian): 12.8 µM | GI50 (OVCAR-4 ovarian): 4.3 µM | TGI (OVCAR-4 ovarian): > 100 µM | GI50 (EKVX NSCLC): 3.02 µM | TGI (EKVX NSCLC): 39 µM | GI50 (UACC-257 melanoma): 2440 nM | TGI (UACC-257 melanoma): 46.6 µM | GI50 (SW-620 colon): 2820 nM | TGI (SW-620 colon): > 100 µM | GI50 (MDA-MB-435): 2900 nM | TGI (MDA-MB-435): 9.22 µM | GI50 (SK-MEL-2 melanoma): 3.07 µM | TGI (SK-MEL-2 melanoma): 15.4 µM | GI50 (KM12 colon): 1880 nM | TGI (KM12 colon): 4.39 µM | GI50 (HL-60(TB) leukemia): 1900 nM | TGI (HL-60(TB) leukemia): 28.1 µM | GI50 (TK-10 renal): 6.68 µM | TGI (TK-10 renal): > 100 µM | GI50 (HCT-116 colon): 1660 nM | TGI (HCT-116 colon): 4.02 µM | GI50 (CAKI-1 renal): 8.82 µM | TGI (CAKI-1 renal): > 100 µM | GI50 (OVCAR-5 ovarian): 2000 nM | TGI (OVCAR-5 ovarian): 5.97 µM | GI50 (A498 renal): 2190 nM | TGI (A498 renal): 5.8 µM | GI50 (UACC-62 melanoma): 2210 nM | TGI (UACC-62 melanoma): 7.44 µM | GI50 (SK-OV-3 ovarian): > 81.7 µM | TGI (SK-OV-3 ovarian): > 100 µM | GI50 (PC-3 prostate): 3.74 µM | TGI (PC-3 prostate): > 100 µM | GI50 (RPMI-8226 leukemia): 2490 nM | TGI (RPMI-8226 leukemia): 53.3 µM | GI50 (M14 melanoma): 3.4 µM | TGI (M14 melanoma): > 100 µM | GI50 (T-47D breast): 2750 nM | TGI (T-47D breast): > 100 µM | GI50 (786-0 renal): 2550 nM | TGI (786-0 renal): 6.85 µM | GI50 (MOLT-4 leukemia): 2290 nM | TGI (MOLT-4 leukemia): > 100 µM | GI50 (IGROV1 ovarian): 1860 nM | TGI (IGROV1 ovarian): 4.48 µM | GI50 (CCRF-CEM leukemia): 976 nM | TGI (CCRF-CEM leukemia): > 100 µM | GI50 (BT-549 breast): 2620 nM | TGI (BT-549 breast): 9.88 µM | GI50 (RXF 393 renal): 1560 nM | TGI (RXF 393 renal): 3.07 µM | GI50 (LOX IMVI melanoma): 1560 nM | TGI (LOX IMVI melanoma): 3.51 µM | GI50 (DU-145 prostate): 2780 nM | TGI (DU-145 prostate): 8.1 µM | GI50 (SNB-75 CNS): 940 nM | TGI (SNB-75 CNS): > 100 µM | GI50 (SK-MEL-5 melanoma): 2360 nM | TGI (SK-MEL-5 melanoma): 5.71 µM | GI50 (SR leukemia): 1370 nM | TGI (SR leukemia): > 100 µM
